Assay results as given in patent publication US12522623B2, “Small molecule STAT protein degraders” (THE REGENTS OF THE UNIVERSITY OF MICHIGAN, priority 2020, dated 2026).

What was measured:
Assay type in all cases: cell-based
[1] = target: T1, STAT3 (Homo sapiens, UniProt P40763); experiment: Fluorescent immunoblotting of STAT3 protein in MOLM-16 cells (estimated DC50); settings: MOLM-16, 4 h
T1 construct: endogenous in cells; host or cells: MOLM-16 (acute leukemia cells)
Method: (§1) In vitro cultured cells or xenograft tumors were lysed 1×Cell Lysis Buffer (Cell Signaling Technology, #9803), resolved by SDS-PAGE NuPAGE gel (Thermo Fisher Scientific), and transferred to a PVDF membrane (Bio Rad). For chemiluminescence immunoblotting, membranes were blocked for 1 h using 5% Blotting-Grade Blocker (#1706404, Bio Rad) in 1×Tris-buffered saline with Tween 20 (TBST, Pierce). Antibodies used were: rabbit mAbs for STAT3 (Cell Signaling Technology, #4368, #12640) and p-STAT3 (Y705) (Cell Signaling Technology, #9245, #52075). HRP conjugated goat anti-rabbit IgG (H+L) (#A27036) secondary antibodies was from Thermo Fisher Scientific. GAPDH (Santa Cruz Technology, sc-47724HRP) and actin (Santa Cruz Technology, sc-8432HRP, sc-47778HRP) were loading controls. For fluorescent immunoblotting, membranes were blocked using Odyssey TBS Blocker Buffer (LI-COR). IRDye 680RD and 800CW Dye-labeled secondary antibodies (LI-COR) were used. The washed membranes were scanned using Odyssey CLx imager (LI-COR). The intensity of Western blot signaling was quantitated using the Odyssey software or Image Studio V5.2 (LI-COR).

[2] = target: T2, STAT1 (Homo sapiens, UniProt P42224); experiment: Fluorescent immunoblotting of STAT1 protein in MOLM-16 cells (estimated DC50); settings: MOLM-16, 4 h
T2 construct: endogenous in cells; host or cells: MOLM-16 (acute leukemia cells)
T2 sequence (P42224 1-750): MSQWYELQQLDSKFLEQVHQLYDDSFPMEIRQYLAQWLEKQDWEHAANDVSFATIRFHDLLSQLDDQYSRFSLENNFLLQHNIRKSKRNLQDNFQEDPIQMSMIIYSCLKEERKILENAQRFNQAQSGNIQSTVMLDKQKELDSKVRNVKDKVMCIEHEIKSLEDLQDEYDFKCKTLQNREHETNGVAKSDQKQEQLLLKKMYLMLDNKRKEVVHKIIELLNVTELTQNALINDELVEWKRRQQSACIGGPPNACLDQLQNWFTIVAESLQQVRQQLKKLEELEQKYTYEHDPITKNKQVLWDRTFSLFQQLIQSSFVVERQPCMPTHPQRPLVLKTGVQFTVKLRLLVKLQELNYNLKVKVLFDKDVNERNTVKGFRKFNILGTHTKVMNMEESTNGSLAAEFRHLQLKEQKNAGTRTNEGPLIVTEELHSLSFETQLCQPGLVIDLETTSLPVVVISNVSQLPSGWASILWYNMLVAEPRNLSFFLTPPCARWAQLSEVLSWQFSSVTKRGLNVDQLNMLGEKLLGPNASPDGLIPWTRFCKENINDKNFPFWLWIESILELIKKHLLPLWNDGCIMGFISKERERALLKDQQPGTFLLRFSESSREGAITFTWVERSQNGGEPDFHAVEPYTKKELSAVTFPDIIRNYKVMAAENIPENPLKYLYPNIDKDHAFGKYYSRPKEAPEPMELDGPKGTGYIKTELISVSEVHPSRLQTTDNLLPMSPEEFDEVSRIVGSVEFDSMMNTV
Method: as §1

[3] = test system: MOLM-16 cells; experiment: Cell growth inhibition, 4-day proliferation assay (CellTiter-Glo); settings: MOLM16, 96 h; MOLM-16, 4 days
Method: The effect of representative Compounds of the Disclosure on cell viability was determined in a 4-day proliferation assay. Cells were maintained in the appropriate culture medium at 37° C. and an atmosphere of 5% CO2. All the cell lines were used within three months of thawing fresh vials. Cells were seeded in 384-well white plates (Corning Costar) at a density of 2,000 cells/well in 25 μl of culture medium. Compounds were serially diluted in the appropriate medium, and 25 μl of the diluted compounds were added to the cells. After the addition of compounds, the cells were incubated at 37° C. in an atmosphere of 5% CO2 for 4 days. Cell viability was determined using the CellTiter-Glo® Luminescent Cell Viability Assay Kit (Promega, Madison, WI) according to the manufacturers' instructions. Essentially, 50 μl of CellTiter-Glo® Reagent was added to each well, and then the plates were incubated at room temperature for 20 minutes. The luminescent signal was measured using a Tecan multimode microplate reader (Tecan, Morrisville, NC). The readings were normalized to the DMSO-treated cells and the IC50 was calculated by nonlinear regression (four parameters sigmoid fitted with variable slope, least squares fit, and no constraint) analysis using the GraphPad Prism software.

T1 sequence (P40763 whole entry): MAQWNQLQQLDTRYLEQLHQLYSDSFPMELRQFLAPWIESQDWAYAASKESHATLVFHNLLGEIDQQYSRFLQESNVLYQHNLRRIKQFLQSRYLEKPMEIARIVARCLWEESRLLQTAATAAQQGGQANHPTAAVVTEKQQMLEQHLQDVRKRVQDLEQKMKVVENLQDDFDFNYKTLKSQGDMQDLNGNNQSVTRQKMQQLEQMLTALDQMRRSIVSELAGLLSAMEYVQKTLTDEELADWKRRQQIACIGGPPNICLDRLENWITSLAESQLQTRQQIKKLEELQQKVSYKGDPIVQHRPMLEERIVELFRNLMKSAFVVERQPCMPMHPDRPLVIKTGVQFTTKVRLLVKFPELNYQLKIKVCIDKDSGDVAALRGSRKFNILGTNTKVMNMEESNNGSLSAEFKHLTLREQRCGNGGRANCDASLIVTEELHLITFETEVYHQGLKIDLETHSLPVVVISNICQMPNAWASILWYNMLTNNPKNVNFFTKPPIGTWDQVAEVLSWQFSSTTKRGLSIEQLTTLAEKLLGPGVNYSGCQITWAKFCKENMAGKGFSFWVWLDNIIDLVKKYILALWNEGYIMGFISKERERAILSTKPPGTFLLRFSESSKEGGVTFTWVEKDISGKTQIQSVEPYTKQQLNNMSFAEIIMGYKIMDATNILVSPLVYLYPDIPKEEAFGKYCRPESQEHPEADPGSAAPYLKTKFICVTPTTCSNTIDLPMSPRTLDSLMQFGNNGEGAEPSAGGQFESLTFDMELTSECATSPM

Compound	DC50 [1] [nM]	DC50 [2] [nM]	IC50 [3] [nM]
COC(=O)N1CC[C@H]2CC[C@@H](C(=O)N[C@@H](CCCN)C(=O)N[C@@H](Cc3ccc(C(C)(C)C)cc3)C(=O)N3CCC(CCC#Cc4cccc5c4CN(C4CCC(=O)NC4=O)C5=O)CC3)N2C(=O)[C@@H](NC(=O)c2cc3cc(C(F)(F)P(=O)(O)O)ccc3s2)C1 (stereo partly drawn) [Cpd. No. 1, ((2-(((5S,8S,10aR)-8-(((2S)-5-amino-1-(((2S)-3-(4-(tert-butyl)phenyl)-1-(4-(4-(2-(2,6-dioxopiperidin-3-yl)-1-oxoisoindolin-4-yl)but-3-yn-1-yl)piperidin-1-yl)-1-oxopropan-2-yl)amino)-1-oxopentan-2-yl)carbamoyl)-3-(methoxycarbonyl)-6-oxodecahydropyrrolo[1,2-a][1,5]diazocin-5-yl)carbamoyl)benzo[b]thiophen-5-yl)difluoromethyl)phosphonic acid]	1000	> 1000	–
CCN1CC[C@H]2CC[C@@H](C(=O)N[C@@H](CCn3ccnc3N)C(=O)N[C@@H](Cc3ccc(C(C)(C)C)cc3)C(=O)N3CCC(CCC#Cc4cccc5c4CN(C4CCC(=O)NC4=O)C5=O)CC3)N2C(=O)[C@@H](NC(=O)c2cc3cc(C(F)(F)P(=O)(O)O)ccc3s2)C1 (stereo partly drawn) [Cpd. No. 22, ((2-(((5S,8S,10aR)-8-(((2S)-4-(2-amino-1H-imidazol-1-yl)-1-(((2S)-3-(4-(tert-butyl)phenyl)-1-(4-(4-(2-(2,6-dioxopiperidin-3-yl)-1-oxoisoindolin-4-yl)but-3-yn-1-yl)piperidin-1-yl)-1-oxopropan-2-yl)amino)-1-oxobutan-2-yl)carbamoyl)-3-ethyl-6-oxodecahydropyrrolo[1,2-a][1,5]diazocin-5-yl)carbamoyl)benzo[b]thiophen-5-yl)difluoromethyl)phosphonic acid]	> 1000	> 1000	–
CCN1CC[C@H]2CC[C@@H](C(=O)N[C@@H](CCS(N)(=O)=O)C(=O)N[C@@H](Cc3ccc(C(C)(C)C)cc3)C(=O)N3CCC(CCC#Cc4cccc5c4CN(C4CCC(=O)NC4=O)C5=O)CC3)N2C(=O)[C@@H](NC(=O)c2cc3cc(C(F)(F)P(=O)(O)O)ccc3s2)C1 (stereo partly drawn) [Cpd. No. 20, ((2-(((5S,8S,10aR)-8-(((2S)-1-(((2S)-3-(4-(tert-butyl)phenyl)-1-(4-(4-(2-(2,6-dioxopiperidin-3-yl)-1-oxoisoindolin-4-yl)but-3-yn-1-yl)piperidin-1-yl)-1-oxopropan-2-yl)amino)-1-oxo-4-sulfamoylbutan-2-yl)carbamoyl)-3-ethyl-6-oxodecahydropyrrolo[1,2-a][1,5]diazocin-5-yl)carbamoyl)benzo[b]thiophen-5-yl)difluoromethyl)phosphonic acid]	< 250	> 1000	–
NC(=O)CC[C@H](NC(=O)[C@@H]1CC[C@@H]2CCN(C(=O)CCCCCC#Cc3cccc4c3CN(C3CCC(=O)NC3=O)C4=O)C[C@H](NC(=O)c3cc4cc(C(F)(F)P(=O)(O)O)ccc4s3)C(=O)N21)c1ncc(-c2ccccc2)s1 (stereo partly drawn) [Cpd. No. 2, ((2-(((5S,8S,10aR)-8-(((S)-4-amino-4-oxo-1-(5-phenylthiazol-2-yl)butyl)carbamoyl)-3-(8-(2-(2,6-dioxopiperidin-3-yl)-1-oxoisoindolin-4-yl)oct-7-ynoyl)-6-oxodecahydropyrrolo[1,2-a][1,5]diazocin-5-yl)carbamoyl)benzo[b]thiophen-5-yl)difluoromethyl)phosphonic acid]	100	> 1000	49
NC(=O)CC[C@H](NC(=O)[C@@H]1CC[C@@H]2CCN(C(=O)CCCCCC#Cc3cccc4c3CN(C3CCC(=O)NC3=O)C4=O)C[C@H](NC(=O)c3cc4cc(C(F)(F)P(=O)(O)O)ccc4s3)C(=O)N21)c1ncc(-c2ccc(F)cc2)s1 (stereo partly drawn) [Cpd. No. 9, ((2-(((5S,8S,10aR)-8-(((S)-4-amino-1-(5-(4-fluorophenyl)thiazol-2-yl)-4-oxobutyl)carbamoyl)-3-(8-(2-(2,6-dioxopiperidin-3-yl)-1-oxoisoindolin-4-yl)oct-7-ynoyl)-6-oxodecahydropyrrolo[1,2-a][1,5]diazocin-5-yl)carbamoyl)benzo[b]thiophen-5-yl)difluoromethyl)phosphonic acid]	50	–	60
CCN1CC[C@H]2CC[C@@H](C(=O)N[C@@H](CCn3ccnc3[N+](=O)[O-])C(=O)N[C@@H](Cc3ccc(C(C)(C)C)cc3)C(=O)N3CCC(CCC#Cc4cccc5c4CN(C4CCC(=O)NC4=O)C5=O)CC3)N2C(=O)[C@@H](NC(=O)c2cc3cc(C(F)(F)P(=O)(O)O)ccc3s2)C1 (stereo partly drawn) [Cpd. No. 21, ((2-(((5S,8S,10aR)-8-(((2S)-1-(((2S)-3-(4-(tert-butyl)phenyl)-1-(4-(4-(2-(2,6-dioxopiperidin-3-yl)-1-oxoisoindolin-4-yl)but-3-yn-1-yl)piperidin-1-yl)-1-oxopropan-2-yl)amino)-4-(2-nitro-1H-imidazol-1-yl)-1-oxobutan-2-yl)carbamoyl)-3-ethyl-6-oxodecahydropyrrolo[1,2-a][1,5]diazocin-5-yl)carbamoyl)benzo[b]thiophen-5-yl)difluoromethyl)phosphonic acid]	> 1000	> 1000	–
CCN1CC[C@H]2CC[C@@H](C(=O)N[C@@H](CCn3ccnc3)C(=O)N[C@@H](Cc3ccc(C(C)(C)C)cc3)C(=O)N3CCC(CCC#Cc4cccc5c4CN(C4CCC(=O)NC4=O)C5=O)CC3)N2C(=O)[C@@H](NC(=O)c2cc3cc(C(F)(F)P(=O)(O)O)ccc3s2)C1 (stereo partly shown) [Cpd. No. 19]	250	> 1000	–
CCN1CC[C@H]2CC[C@@H](C(=O)N[C@@H](CCS(C)(=O)=O)C(=O)N[C@@H](Cc3ccc(C(C)(C)C)cc3)C(=O)N3CCC(CCC#Cc4cccc5c4CN(C4CCC(=O)NC4=O)C5=O)CC3)N2C(=O)[C@@H](NC(=O)c2cc3cc(C(F)(F)P(=O)(O)O)ccc3s2)C1 (stereo partly drawn) [Cpd. No. 18, ((2-(((5S,8S,10aR)-8-(((2S)-1-(((2S)-3-(4-(tert-butyl)phenyl)-1-(4-(4-(2-(2,6-dioxopiperidin-3-yl)-1-oxoisoindolin-4-yl)but-3-yn-1-yl)piperidin-1-yl)-1-oxopropan-2-yl)amino)-4-(methylsulfonyl)-1-oxobutan-2-yl)carbamoyl)-3-ethyl-6-oxodecahydropyrrolo[1,2-a][1,5]diazocin-5-yl)carbamoyl)benzo[b]thiophen-5-yl)difluoromethyl)phosphonic acid]	< 250	> 1000	–
NC(=O)CC[C@H](NC(=O)[C@@H]1CC[C@@H]2CCN(C(=O)CCCCCC#Cc3cccc4c3CN(C3CCC(=O)NC3=O)C4=O)C[C@H](NC(=O)c3cc4cc(C(F)(F)P(=O)(O)O)ccc4s3)C(=O)N21)c1nc(Cc2ccccc2)cs1 (stereo partly drawn) [Cpd. No. 3, ((2-(((5S,8S,10aR)-8-(((S)-4-amino-1-(4-benzylthiazol-2-yl)-4-oxobutyl)carbamoyl)-3-(8-(2-(2,6-dioxopiperidin-3-yl)-1-oxoisoindolin-4-yl)oct-7-ynoyl)-6-oxodecahydropyrrolo[1,2-a][1,5]diazocin-5-yl)carbamoyl)benzo[b]thiophen-5-yl)difluoromethyl)phosphonic acid]	100	–	170
